# Measured values as given in patent US20180258381A1, “BIO-LAMINA BIOREACTORS AND METHODS OF MAKING AND USING THE SAME” (Oregon State University, priority 2015, published 2018).
# System: OB3b expressing sMMO
# Experiment: Packed bed reactor with cyclopropane inhibitor
# Assay type: cell-based, Methylosinus trichosporium (OB3b)
# Procedure: A Packed Bed Reactor was used to evaluate the conversion of methane to methanol by cell of OB3b expressing sMMO. […] Cyclopropanol is expected to be produced via oxidation of cyclopropane by MMO in this example.
# A continuous flow PBR was constructed using a glass HPLC column with the dimensions 2.5 cm ID and 13 cm packing height. Methane, oxygen, and the inhibitor feed solutions dissolved in media were contained within the two 100 mL syringes. The column was packed with alginate beads with sMMO-expressing OB3b formed in-situ under aseptic conditions Immobilized culture performance was evaluated in the PBR over a range of flow rates to achieve reactor residence times (τ) ranging from 0.2, 0.3, 0.5, and 8.5 hours. Two separate experiments were carried out, one for methane transformation (conversion) without the cyclopropane inhibitor and the other with the inhibitor (FIG. 26). For the methane utilization studies, the influent solution was developed by adding 7 mL methane and 21 mL oxygen to the 100 ml syringes. For the inhibition studies 1 ml of cyclopropane was added. After equilibration for 20 minutes, the gases were ejected from the syringes, and the syringes connected to the column inlet.
# An integrated form of the Monod equation was used to analyze the results from the PBR experiment. It relates substrate conversion across a packed bed reactor, X, to the residence time, τ (min), and initial substrate concentration So (mg/L).
# The solids lines in FIG. 26 were computed with the integrated Monod model using the Ks and kmax obtained from the batch data. The simulation used an effectiveness factor (η) of 1 indicating no loss in cell activity. Good fit was obtained between the simple analytical solution, equation above, and the experimental observations for the uninhibited case. The maximum conversion was 95±0.8% at a τ of 8 hours. For the cyclopropane inhibition embodiment, the same kmax as non-inhibited case was used, but with a Ks four times the uninhibited case to investigate the plausibility of competitive inhibition.
smiles,measurement,setting,value
"C1CC1 [CP, cyclopropane]",effect on methane transformation,cyclopropane-amended column vs uninhibited,Inhibition of methane transformation was observed
same,Methane conversion,residence time 4 hours,68±11%
same,methanol production selectivity (percentage of methane converted to methanol),residence time 4 hours,102±39%
same,Methane conversion,residence time 8 hours,95±1%
same,methanol production selectivity (percentage of methane converted to methanol),residence time 8 hours,91±32%
